Columns and labels:
Assay type in all cases: in vivo, spontaneously hypertensive rat (SHR)
[1] = test system: common carotid artery (CCA); test: Histological (H&E) and immunohistochemical (PECAM-1) staining of the CCAs; conditions: for thrombus formation, histologic examination (H&E): 3 days
Method: The animal of Example 3 and Comparative Example 2 was anesthetized and sacrificed. Both CCAs of Example 3 and Comparative Example 2 were removed and washed in phosphate buffer solution, dehydrated on dry ice, and stored at −80° C. for 24 hours. Before sectioning, all CCAs were embedded in Optimal Cutting Temperature Compound (Tissue Tek, 4583) (Sakura Finetek USA, Inc., Torrance, Calif., USA) and stored at −80° C. for another 12 hours. Cross-sections of the CCAs of Example 3 and Comparative Example 2 (10 μm in thickness) were consecutively cut on a microtome-cryostat. Then, these sections were subjected to hematoxylin and eosin (H&E) staining for evaluation of thrombus formation. For immunohistochemical staining, the slides were treated with cold acetone for 10 minutes and then with methanol with 0.3% H2O2 for 10 minutes. After blocking endogenous peroxidase using a peroxidase blocking reagent (DAKO, Carpinteria, Calif., USA), the primary antibody (anti-PECAM-1 [anti-CD31]) (AbD Serotec, Dusseldorf, Germany) was applied at a dilution of 1:500 overnight at 4° C., followed by a universal immuno-peroxidase polymer (Histofine) (Cosmo Bio, Carlsbad, Calif., USA) for 1 hour at room temperature. Development of color was achieved by exposure for 2 minutes to the DAB chromogen system (DAKO). Endothelium cells were considered positive for PECAM-1 in the presence of intense brown staining.

[2] = test system: common carotid artery (CCA); test: Magnetic Resonance Angiography (MRA) examination of the CCAs; conditions: Example 3: intermittent 4.5 mW/cm2 LED
Method: Serial in vivo MRA examination was performed on the CCAs of Example 3 and Comparative Example 2, and the typical MR imaging (MRI) experimental scheme of the time sequence is shown in FIG. 9. Images were acquired using a 7T MRI system (ClinScan 70/30 USR) (Bruker, Rheinstetten, Germany) with a linear body coil. The rat was anaesthetized with 1.5% isoflurane and connected to a respiratory rate monitor. The flow of anesthetic gas was constantly regulated to maintain the breathing rate at approximately 40/min. MRA of the CCAs was performed using the time-of-flight (TOF) method without a contrast agent. Transverse slices (panels (a) to (d) of FIG. 9) were acquired with a fast, low-angle shot (FLASH) using the following parameters: TR=22 ms, TE=4.87 ms, pulse angle=90 degrees, field of view (FQV)=55×42 mm2, and matrix size=58×256. T2-weighted images (panels (e) to (f) of FIG. 9) were acquired using a turbo spin-echo sequence and using the following parameters: TR=2900 ms, TE=37 ms, turbo factor=7, FOV=45×45 mm2, slice thickness=1 mm, and matrix size=240×320. The imaged area covered the CCAs, the carotid bifurcation, the internal carotid artery, and the external carotid artery. Contiguous cross-sectional images were obtained perpendicular to the long axis of the neck. Thrombus formation in the CCAs of Example 3 and Comparative Example 2 was observed by MRA and coronal sequential MR images. […] Because the blood flow of the CCA of Example 3 was disrupted by thrombus, MRA of the CCA of Example 3 was not as bright as the MRA of the CCA of Comparative Example 2 (panel (b) of FIG. 9).

[3] = test system: common carotid artery (CCA); test: LED photochemical thrombosis induction in the common carotid artery, ultrasound imaging; conditions: for thrombosis formation in the CCA (ultrasound): no irradiation
Excerpt: A system for inducing thrombosis was provided, including an implantable medical device and an external power controller. The external power controller includes a Class-E amplifier and a resonant transmitting coil. The implantable medical device includes a resonant receiving coil (i.e., the wireless power receiver) and an LED assembly (i.e., the irradiation module) including a surface-mount device type LED (i.e., the light-emitting element) and a LED lens (i.e., the lens element) disposed on the LED. The LED assembly and the resonant receiving coil were hermetically packaged with polydimethylsiloxane (PDMS) (i.e., the encapsulator). An open ditch of approximately 2 mm in width and depth was made on the LED lens, and four cuts (i.e., the engaging groove) were formed on the PDMS. A male spontaneously hypertensive rat (SHR) (i.e., the living animal) was anesthetized with 3% isoflurane in a mixture of 30% oxygen and 70% nitrogen. After the administration of anesthesia, the rat was placed in a supine position. A 1 cm incision was made in the left inguinal area and the femoral vein was carefully dissected. A polyethylene tube to be used for rose bengal injection was inserted in the femoral vein via the dissected incision and secured using 3-0 nylon suture. […] Blunt dissection of the left common carotid artery (CCA) was performed. The CCA was placed into the ditch of the LED lens, and the implantable medical device was secured onto the CCA using 3-0 nylon suture (i.e., the securing strap) to engage the cuts on the PDMS. After the implantation procedure, the surgical wound was sutured and the rat was placed in a prone position near the transmitting coil of the external power controller. After isoflurane was decreased to 1%, rose bengal (Sigma-Aldrich, St. Louis, Mo., USA) was administrated intravenously at a dose of 60 mg/kg. Thereafter, the external power controller was powered to wirelessly drive the LED of the implantable medical device via the resonant receiving coil to irradiate the CCA at a wavelength of 540 nm. […] The LED light power was measured using a Nova handheld laser power meter (Ophir Optronics Solutions, Ltd., Israel). After irradiation, the implantable medical device was removed and the wound was sutured using 3-0 nylon. Ultrasound images of the CCA prior to irradiation (Pre OP), immediately after irradiation (Post OP), 3 days after irradiation (Post OP 3d), and 7 days after irradiation (Post OP 7d) were captured and are shown in FIG. 6.

[4] = Example 3: intermittent 4.5 mW/cm2 LED

O=C([O-])c1c(Cl)c(Cl)c(Cl)c(Cl)c1-c1c2cc(I)c(=O)c(I)c-2oc2c(I)c([O-])c(I)cc12.[Na+].[Na+] [rose bengal]
endothelial cells, PECAM-1 staining ([1]; Comparative Example 2: non-irradiated CCA of the same rat): intact
endothelial cells, PECAM-1 staining [1, 4]: injured and discontinued
thrombus formation, histologic examination (H&E) [1, 4]: formation of thrombus packed with red blood cells, leucocytes, and platelets
thrombus formation, histologic examination (H&E) ([1]; non-irradiated CCA of the same rat): no thrombus formation was observed
thrombus in the CCA (MRA / T2-weighted MRI) ([2]; immediately after irradiation): the thrombus appeared on the vessel wall
thrombus in the CCA (MRA / T2-weighted MRI) ([2]; seven days after irradiation): totally occluded
thrombus in the CCA (MRA / T2-weighted MRI) ([2]; three days after irradiation): enlarged and significantly disrupted blood flow
thrombosis formation in the CCA (ultrasound) ([3]; Comparative Example 1: 60 mg/kg i.v., up to 7 days): thrombosis did not form
thrombosis formation in the CCA (ultrasound) ([3]; Comparative Example 2: right CCA of the Example 3 rat, up to 7 days): thrombosis was not formed
thrombosis / occlusion of the CCA (ultrasound) ([3]; Comparative Example 5: intermittent LED 4.0 mW/cm2 (2 h, off 30 min, 2 h), up to 1 day): disappeared within one day after irradiation
thrombosis / occlusion of the CCA (ultrasound) ([3]; Comparative Example 6: intermittent LED 5.0 mW/cm2 (2 h, off 30 min, 2 h), up to 1 day): the artery became totally occluded one day after irradiation
thrombosis / occlusion of the CCA (ultrasound) ([3]; Example 1: 60 mg/kg i.v., LED 540 nm, 6 mW/cm2 continuously for 4 hours, up to 7 days): totally occluded right after irradiation and total occlusion was maintained for 7 days
thrombosis / occlusion of the CCA (ultrasound) ([3]; Example 2: 60 mg/kg i.v., LED 5 mW/cm2 continuously for 4 hours, up to 7 days): the formed thrombus gradually diminished 3 days after irradiation (Post OP 3d) and totally disappeared at 7 days after irradiation
thrombosis / occlusion of the CCA (ultrasound) ([3]; Example 3: 60 mg/kg i.v., LED 4.5 mW/cm2 2 hours, off 30 minutes, 2 hours, up to 7 days): the CCA was totally occluded at 7 days after irradiation

Source: patent publication US20160367831A1, “IMPLANTABLE MEDICAL DEVICE, SYSTEM AND METHOD FOR INDUCING THROMBOSIS IN AN ARTERY OF A LIVING ANIMAL” (Chang Gung Memorial Hospital, Linkou, priority 2015, published 2016)
